The values below come from article PMC10734500, “Anti-virulence and bactericidal activities of Stattic against Shigella sonnei” (Applied and Environmental Microbiology, 2023).

Assay [1] concerns the target T1, GalU (Shigella sonnei, UniProt Q3Z0V1).
T1 construct: intact galU gene in pET28a (His-tagged)
The assay can be described thus: microscale thermophoresis (MST) with purified GalU; supported by malachite green enzyme inhibition ([…] decrease at […]). Format: binding. (In general: In MST a laser heats a spot of the sample, and binding alters the fluorescence response.)

For assay [2], the target named is T2, GalU (Klebsiella oxytoca, UniProt A0A163UX09).
T2 construct: galUK.o in pET28a
The assay can be described thus: microscale thermophoresis (MST) with expressed GalU homolog. In kind it is binding.

By Kd is commonly meant the free concentration of one partner at which half of the binding sites on the other are occupied at equilibrium, for simple one-to-one binding. High values mean weaker binding, low ones tighter binding.

The structures appear in SMILES notation.

T1 sequence (Q3Z0V1 entry or part of it): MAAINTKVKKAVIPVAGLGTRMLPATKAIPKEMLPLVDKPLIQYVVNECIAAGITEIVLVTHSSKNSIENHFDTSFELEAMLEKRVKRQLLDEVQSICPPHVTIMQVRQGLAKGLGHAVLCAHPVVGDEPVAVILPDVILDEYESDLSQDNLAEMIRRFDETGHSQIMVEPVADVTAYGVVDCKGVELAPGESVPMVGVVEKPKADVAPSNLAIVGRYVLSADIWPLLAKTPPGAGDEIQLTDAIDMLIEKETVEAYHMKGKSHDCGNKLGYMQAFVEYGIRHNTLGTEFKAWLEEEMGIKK
T2 sequence (A0A163UX09 entry or part of it): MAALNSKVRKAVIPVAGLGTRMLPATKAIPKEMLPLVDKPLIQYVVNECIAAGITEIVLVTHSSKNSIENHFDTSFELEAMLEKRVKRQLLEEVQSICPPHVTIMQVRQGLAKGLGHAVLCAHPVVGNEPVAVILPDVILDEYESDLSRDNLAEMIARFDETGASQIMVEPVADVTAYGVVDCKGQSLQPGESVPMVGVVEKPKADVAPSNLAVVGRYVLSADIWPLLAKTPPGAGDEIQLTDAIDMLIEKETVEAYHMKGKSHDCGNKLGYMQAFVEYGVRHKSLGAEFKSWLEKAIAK

For `O=[N+]([O-])c1ccc2c(c1)S(=O)(=O)C=C2` [Stattic], the Kd is 20 ± 0.35 µM on GalU [1] and 50 ± 0.25 µM at GalU [2].
